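Grown in 96-well plates, cells were treated for 48 hours with each compound at five concentrations. Insufficient inhibition: endpoint recorded as highest concentration tested. Abbreviation: GI50, concentration required for 50% inhibition of growth. TGI is the concentration that stops growth completely.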
Assays:
Test in all cases: NCI-60 cell line screen, 48 h
[1] = test system: SF-295 CNS
[2] = test system: SF-268 CNS
[3] = test system: 786-0 renal
[4] = test system: SK-MEL-28 melanoma
[5] = test system: DU-145 prostate
[6] = test system: UACC-257 melanoma
[7] = test system: TK-10 renal
[8] = test system: CAKI-1 renal
[9] = test system: NCI-H226 lung
[10] = test system: SNB-19 CNS
[11] = test system: SK-OV-3 ovarian
[12] = test system: SK-MEL-5 melanoma
[13] = test system: SR leukemia
[14] = test system: SW-620 colon
[15] = test system: HS 578T breast
[16] = test system: HCT-116 colon
[17] = test system: HCC-2998 colon
[18] = test system: RXF 393 renal
[19] = test system: BT-549 breast
[20] = test system: OVCAR-5 ovarian
[21] = test system: OVCAR-8 ovarian
[22] = test system: MCF7 breast
[23] = test system: SK-MEL-2 melanoma
[24] = test system: NCI-H23 lung
[25] = test system: A498 renal
[26] = test system: LOX IMVI melanoma

Structure (SMILES): COc1cc2nccc(Oc3ccc(NC(=O)C4(C(=O)Nc5ccc(F)cc5)CC4)cc3)c2cc1OC(=O)c1ccc(N)cc1
- TGI [1]: 1.47 µM
- GI50 [2]: 1.63 µM
- TGI [2]: > 100 µM
- GI50 [3]: 1.81 µM
- TGI [3]: 4.45 µM
- GI50 [4]: 1.34 µM
- TGI [4]: 5.16 µM
- GI50 [5]: 3.48 µM
- TGI [5]: > 100 µM
- GI50 [6]: 4.91 µM
- TGI [6]: > 100 µM
- GI50 [7]: 6.62 µM
- TGI [7]: > 100 µM
- GI50 [8]: 2.68 µM
- TGI [8]: > 100 µM
- GI50 [9]: 3.11 µM
- TGI [9]: > 100 µM
- GI50 [10]: 3.05 µM
- TGI [10]: > 100 µM
- GI50 [11]: 2.95 µM
- TGI [11]: 8.05 µM
- GI50 [12]: 4.46 µM
- TGI [12]: > 100 µM
- GI50 [13]: 0.626 µM
- TGI [13]: > 100 µM
- GI50 [14]: 2.92 µM
- TGI [14]: > 100 µM
- GI50 [15]: 0.29 µM
- TGI [15]: 2.07 µM
- GI50 [16]: 3.08 µM
- TGI [16]: > 100 µM
- GI50 [17]: 3.88 µM
- TGI [17]: > 100 µM
- GI50 [18]: 0.314 µM
- TGI [18]: 1.99 µM
- GI50 [19]: 2.88 µM
- TGI [19]: > 100 µM
- GI50 [20]: 2.23 µM
- TGI [20]: > 100 µM
- GI50 [21]: 5.77 µM
- TGI [21]: > 100 µM
- GI50 [22]: 1.72 µM
- TGI [22]: > 100 µM
- GI50 [23]: 2.38 µM
- TGI [23]: 14.5 µM
- GI50 [24]: 1.98 µM
- TGI [24]: > 100 µM
- GI50 [25]: 2.03 µM
- TGI [25]: 4.53 µM
- GI50 [26]: 1.92 µM
- TGI [26]: 5.31 µM

Source: PubChem BioAssay (NCI)
